Results as given in the NIST ThermoML archive (doi:10.1016/j.jct.2012.12.017).
± gives the expanded uncertainty stated by the source.

Tests used:
[1] = 298.15 K; 101.33 kPa; Liquid; Vibrating tube method
[2] = refractive index (Na D-line) (dimensionless); details: 298.15 K; 101.33 kPa; Liquid; Abbe refractometer

| Compound | mass density [1] [kg/m3] | refractive index [2] |
| --- | --- | --- |
| CCCCCC [hexane] | 655.2 ± 0.25 | 1.37241 ± 0.00033 |
| CCC[n+]1cccc(C)c1.O=S(=O)([N-]S(=O)(=O)C(F)(F)F)C(F)(F)F | 1447.94 ± 0.62 | 1.44485 ± 0.00033 |
| CCO [ethanol] | 785.2 ± 0.24 | 1.35936 ± 0.00033 |
| CC[n+]1cccc(C)c1.O=S(=O)([N-]S(=O)(=O)C(F)(F)F)C(F)(F)F | 1488.5 ± 0.66 | 1.44376 ± 0.00033 |
| CCCCCCC [heptane] | 679.57 ± 0.25 | 1.38529 ± 0.00033 |
